Measurements from patent US6949522B2, “β-2′- or 3′-halonucleosides” (Pharmasset, Inc., priority 2001, dated 2005).
Read-outs that look alike come from different tables or passages of the source.

Key:
HIV-1 LAI (wild type) = experiment: HIV-1 RT-assay on supernatant of acutely infected human PBM cells, strain LAI; assay type: cell-based; conditions: 5 days, RT activity reduced by 90%
Method: (§1) Human PBM cells (1×10^6 cells/T25 flask) were PHA stimulated for 2 or 3 days, and infected with either a wild type (LAI and xxBRU) or a 3TC-resistant (xxBRU 184V) HIV-1 strain at 100 TCID50, as previously described (27). The culture was kept for 5 days in presence of test compounds at serial 1-log dilutions. Subsequently, human PBM cells were removed from the culture supernatant by centrifugation (10 minutes, 400×g, 4° C.). This clarified supernatant was tested either in the RT-assay, or in the Q-RT-PCR assay.
Virus particles present in a 1 mL aliquot of culture supernatant were concentrated by high-speed centrifugation (2 hours, 20,000×g, 4° C.). The supernatant was then removed and the virus pellet was dispensed into a 100 μL virus solubilization buffer (VSB: 0.5% Triton X-100; 0.8 M NaCl, 0.5 mM phenylmethylsulfonyl, 20% glycerol, 50 mM Tris.HCl pH 7.8). A 10 μL aliquot of RT-VSB was mixed with 75 μL RT cocktail (60 mM Tris.HCl pH 7.8, 12 mM MgCl2, 6 mM DTT, 6 μg/mL poly (rA)n-oligo (dT)10-12, 1.2 mM dATP, and 80 μCi/mL 3H-TTP) and incubated for 2 hours at 37° C. Subsequently 100 μL of 10% TCA was added, and the total amount of incorporated 3H-TTP was determined.
(§2) HIV-1 present in culture supernatant fluids was quantified by two different methodologies: i) the Q-RT-PCR with read-out in log copies/mL; and ii) the endogenous viral RT assay on cell supernatant with read-out in log counts per minute/mL (CPM/mL). Upon addition of antiviral compounds to the culture media, a dose-related decrease in virus production was observed. Although the two methodologies measured different parameters (viral RNA versus active RT enzyme), results were not markedly different from each other. The HIV-1 Q-RT-PCR results were compared with a previously established cell-based antiviral drug evaluation assay (endogenous HIV-1 RT polymerization activity in cell supematant)(27).

[1] = test system: 3TC-resistant (xxBRU 184V) HIV-1; experiment: HIV-1 Q-RT-PCR assay in human PBM cells, strain xxBRU 184V; assay type: cell-based; conditions: for EC90: read-out: Q-RT-PCR HIV-1 assay 184V EC90
Method: as §1
Viral RNA present in the culture supernatant was prepared using commercially available columns (QIAamp Viral RNA mini Kit, Qiagen, Valencia, Calif.). Viral RNA was detected in real-time by monitoring increases in fluorescence signal that resulted from degradation of a quenched fluorescent probe molecule following the hybridization of the probe to the arnplified viral DNA (TaqMan 7700 chemistry, Applied Biosystems, Foster City, Calif.). The TaqMan probe and primers were designed using the Primer Express software (Applied Biosystems); they cover highly conserved sequences complementary to an 81 base pair long fragment from the HIV-1 RT gene between codon 230 and 257 of the group MHIV-1 genome; • probe 5′-6FAM-[…]-TAMRA-3′ (Sequence 1) • sense primer: 5′-[…]-3′ (Sequence 2); and • antisense primer 5′-[…]-3′ (Sequence 3).
A total of 5 μL RNA was RT-amplified using reagents and conditions as described by the manufacturer (Applied Biosystems). […] Copy numbers were calibrated using the Roche Amplicor HIV-1 Monitor test™ (Roche Diagnostics, Branchburg, N.J.) on a 1-log dilution series of a clinical HIV-1 genotype B isolate (attenuated in vitro to obtain a high viral load). The 10-6 diluted sample became positive at threshold cycle (Ct=PCR cycle threshold where a sample becomes detectable)=35.52, which corresponded to 1,410 copies/mL in the Roche monitor HIV-1 version II assay. When validated over a dynamic range of 3 logs of virus, there was excellent correlation (r2˜1) between the two methodologies. […] Therefore, the currently designed primer and probe set allowed reliable quantification of both clinical samples and HIV-1 in vitro preparations.
as §2

HepG2 = experiment: Toxicity assay (MTS/MTT dye), HepG2 cells; conditions: for Cytotoxicity HepG2 IC30: HepG2, three day-incubation (Table 1); for IC50: read-out: Cytotoxicity HepG2 IC50, HepG2, three day-incubation (Table 3)
Method: After a three day-incubation for HepG2, or 5 days for human PBM cells, cell viability and mitochondrial activity were measured in a colorimetric assay using the MTS- or MTT dye method (Promega, Madison, Wis.).

[2] = Human immunodeficiency virus 1, PBMC, 120 h
[3] = human PBM cells, 5 days, viral RNA reduced by 90%

SMILES	EC90 (HIV-1 LAI (wild type); [2]) [µM]	EC90 [1, 2] [µM]	Cytotoxicity HepG2 IC30 (HepG2) [µM]	IC50 (HepG2) [µM]	EC90 (HIV-1 LAI (wild type)) [µM]	EC90 [1, 3] [µM]	Q-RT-PCR HIV-1 assay FI, fold increase (EC90 HIV-1184V/EC90 HIV-1xxBRU) [1]
Cc1cn([C@H]2C[C@H](N=[N+]=[N-])[C@@H](CO)O2)c(=O)[nH]c1=O [AZT, 3′-azido-3′-deoxythymidine, reference compound]	0.02	0.01	–	–	–	–	–
Nc1ccn([C@@H]2C=C(F)[C@H](CO)O2)c(=O)n1 [Compound 10, 1-(2,3-Dideoxy-3-fluoro-β-L-glycero-pent-2-eno-furanosyl)cytosine]	25.3	> 100	>100	–	–	–	–
Nc1nc(=O)n([C@@H]2S[C@H](CO)C=C2F)cc1F [Compound D-18, (−)-1-[(1S,4R)-2,3-dideoxy-2,3-didehydro-2-fluoro-4-thio-β-D-ribofuranosyl]-5-fluorocytosine]	–	–	>100	> 100	> 100	> 100	–
Nc1ccn([C@H]2S[C@@H](CO)C=C2F)c(=O)n1 [Compound L-17, (+)-1-[(1S,4R)-2,3-dideoxy-2,3-didehydro-2-fluoro-4-thio-β-L-ribofuranosyl]-cytosine]	–	–	>100	> 100	3.3	> 100	>50
Nc1ccn([C@@H]2CS[C@H](CO)O2)c(=O)n1 [Compound 3TC, (−)-β-2′,3′-dideoxy-3′-thiacytidine, reference compound]	0.13	> 100	>100	–	–	–	>1,562
Nc1ccn([C@@H]2S[C@H](CO)C=C2F)c(=O)n1 [Compound D-17, (−)-1-[(1S,4R)-2,3-dideoxy-2,3-didehydro-2-fluoro4-thio-β-D-ribofuranosyl]-cytosine]	–	–	>100	> 100	11.9	65.8	12.8
Nc1ccn([C@@H]2C=C(F)[C@H](CO)O2)c(=O)n1 [Compound 23, 1-(2,3-Didcoxy-3-fluoro-β-L-glycero-pent-2-eno-furanosyl)cytosine]	–	–	–	> 100	0.67	68.4	115
Nc1nc(=O)n([C@H]2S[C@@H](CO)C=C2F)cc1F [Compound L-18, (+)-1-[(1S,4R)-2,3-dideoxy-2,3-didehydro-2-fluoro-4-thio-β-L-ribofuranosyl]-5-fluoro-cytosine]	–	–	>100	> 100	2.6	> 100	>100
